# According to publication PMC6918687, “Pharmacological inhibition of TAK1, with the selective inhibitor takinib, alleviates clinical manifestation of arthritis in CIA mice” (Arthritis Research & Therapy, 2019):
# Read-outs that look alike come from different tables or passages of the source.
# Tests used:
# RA-FLS cells [1] = assay: Cytokine/chemokine proteome array, LPS-stimulated RA-FLS cells; assay type: cell-based, human; conditions: takinib 10 μM
# Experimental: (§1) Rheumatoid arthritis fibroblast-like synoviocytes (RA-FLS) cells were prepared from surgical synovial samples at the University of Michigan as previously described. Cells were isolated from 4 individual patients (3 female, 1 male) and passaged no more than 2 times before use. Cells were cultured in CRML media, 10% FBS, 1% penicillin-streptomycin (PS), and 1% glutamate.
# […] Twenty-four hours after treatment, supernatant was added to Human Cytokine proteome array (R&D Systems). Cytokine kit was conducted in accordance with manufacturer protocol. Chemiluminescence was used to visualize protein quantities.
# RA-FLS cells [2] = assay: Cytokine/chemokine proteome array, TNF-stimulated RA-FLS cells; assay type: cell-based, human; conditions: takinib 10 μM, TNF 30 ng/mL 24 h
# Experimental: as §1
# RA-FLS cells were activated by addition of LPS 10 ng/mL in the presence or absence of 10 μM takinib or DMSO. Twenty-four hours after treatment, supernatant was added to Human Cytokine proteome array (R&D Systems). Cytokine kit was conducted in accordance with manufacturer protocol. Chemiluminescence was used to visualize protein quantities.
# (§2) Briefly, 10^6 cells were plated and either no treatment (naïve) or pretreated with takinib (10 μM) or vehicle (DMSO) for 30 min prior to stimulation with TNF (30 ng/mL) for 30 min at 37 °C in 5% CO2 for phospho-kinase assay (R&D Systems). NF-κB and cytokine assays were performed as previously described; however, cells were incubated for 24 h post-TNF (30 ng/mL) or LPS (10 ng/mL) stimulation.
# RA-FLS cells [3] = assay: NF-κB signaling protein array, TNF-stimulated RA-FLS cells; assay type: cell-based, human; conditions: TNF 30 ng/mL 24 h
# Experimental: as §1, §2
# [4] = Pharmacokinetics of takinib by LC-MS in plasma and tissues; assay type: in vivo, C3-tag mice; conditions: C3 tagged mice; for half-life: C3-tag, mouse, ip
# Experimental: C3-tag mice were injected intraperitoneally (i.p.) with 50/75mpk takinib and sacrificed at 0, 1 h, 2 h, 4 h, 8 h, 16 h, and 24 h. At the indicated time points, the heart, spleen, kidney, liver, tumor, blood, plasma, muscle, and lung were harvested. All samples were frozen and stored at − 80 °C. Before quantifying the takinib in serum, a standard curve was constructed using HS-219, a close structural analog of takinib that serves as an internal standard. This internal standard solution was used for tissue homogenization. LC-MS analysis was performed at the Duke Proteomics and Metabolomics Core Facility. The final concentration of takinib in the plasma was calculated per milliliter of plasma.
# GraphPad Prism 7 was used for statistical analysis of clinical score comparisons, histological analysis, and plasma concentrations. Two-way ANOVA followed by Dunnett’s multiple comparison test was performed for mean clinical score sum (Fig. 1); weight change over time (Fig. 1); joint score sum for all joints, knees, and forepaw and hind paw (Figs. 2, 3); protein analysis (Figs. 5, 6); and cell survival (Fig. 6g). A linear regression of LC-MS data on takinib was used for PK studies. T½ was determined by non-linear one-phase decay curves. Student T tests were performed for periosteal bone width (Additional file 1: Figure S2) and cell survival (Fig. 6f, g). An alpha of 0.05 was used for all statistical analysis.
# CIA mice = assay: Type II collagen-induced arthritis (CIA) mouse model: clinical arthritis score and body weight; assay type: in vivo, DBA/1 mice; conditions: for % Inhibition from Vehicle Disease (clinical score AUC): day 36
# Experimental: The DBA/1 CIA model was conducted in accordance with The Guide for the Care & Use of Laboratory Animals (8th Edition) and therefore in accordance with all Bolder BioPATH IACUC approved policies and procedures. The Bolder Biopath IACUC approved a “blanket” IACUC protocol for this specific working protocol (BBP-001). No acceptable alternative test systems were identified for the animals used in this study. […] Clinical evaluation was performed under experimenter blinded conditions.
# Collagen was prepared as a 4 mg/ml solution in 0.01 N acetic acid. Equal volumes of 4 mg/ml collagen and 5 mg/ml Freund’s complete adjuvant were emulsified by hand mixing with syringes for approximately 5 min, at which point a bead of this material holds its form when placed in water. On study days 0 and 21, animals were anesthetized with isoflurane and given intradermal injections of a total of 400 μg of type II collagen in Freund’s complete adjuvant at the base of the tail.
# Mice were randomized by body weight into treatment groups on study day 18. Treatment was initiated following enrollment. On study day 36, the mice were euthanized for necropsy. Clinical scores were given for each of the paws (right front, left front, right rear, left rear) on study days 18–36. Experimenter was blinded from the treatment group during clinical evaluation and scoring.
compound,measurement,setting,value
CCCn1/c(=N/C(=O)c2cccc(C(N)=O)c2)[nH]c2ccccc21 [takinib],MIF protein level,RA-FLS cells [1],No significant changes
same,Serpin E1 protein level,RA-FLS cells [1],No significant changes
same,CXCL1 level,RA-FLS cells [1]; p < 0.0003,significantly downregulated
same,CCL2 level,RA-FLS cells [1]; p < 0.0009,significantly downregulated
same,reduction of IL-8,RA-FLS cells [1]; p < 0.006,57%
same,reduction of IL-6,RA-FLS cells [1]; p < 0.055,33%
same,GROα (CXCL1) secretion,RA-FLS cells [2]; p < 0.002,reduced
same,ICAM secretion,RA-FLS cells [2]; p < 0.03,reduced
same,G-CSF secretion,RA-FLS cells [2]; p < 0.04,reduced
same,MIP-1α/MIP-1β secretion,RA-FLS cells [2]; p = 0.11,modest change
same,"ASC expression, array signal, Mean","RA-FLS cells [3]; takinib 10 μM, n=4",29.77
same,"BCL10 expression, array signal, Mean","RA-FLS cells [3]; takinib 10 μM, n=4",15.76
same,"CARD6 expression, array signal, Mean","RA-FLS cells [3]; takinib 10 μM, n=4",15.29
same,"CD40/TNFRSFS expression, array signal, Mean","RA-FLS cells [3]; takinib 10 μM, n=4",23.956
same,"FADD/MORT1 expression, array signal, Mean","RA-FLS cells [3]; takinib 10 μM, n=4",36.45
same,"Fas/TNFRSF6/CD95 expression, array signal, Mean","RA-FLS cells [3]; takinib 10 μM, n=4",172.1241
same,"IKK1/IKKα/CHUK expression, array signal, Mean","RA-FLS cells [3]; takinib 10 μM, n=4",55.68
same,"IKK2/IKKβ expression, array signal, Mean","RA-FLS cells [3]; takinib 10 μM, n=4",112.6481
same,"IKKγ/NEMO expression, array signal, Mean","RA-FLS cells [3]; takinib 10 μM, n=4",107.307
same,"IL-1 RI expression, array signal, Mean","RA-FLS cells [3]; takinib 10 μM, n=4",21.68
same,"IL-17 RA expression, array signal, Mean","RA-FLS cells [3]; takinib 10 μM, n=4",19.1835
same,"IL-18 Rα expression, array signal, Mean","RA-FLS cells [3]; takinib 10 μM, n=4",17.5855
same,"IRAK1 expression, array signal, Mean","RA-FLS cells [3]; takinib 10 μM, n=4",26.78
same,"IRF5 expression, array signal, Mean","RA-FLS cells [3]; takinib 10 μM, n=4",16.411
same,"IRF8 expression, array signal, Mean","RA-FLS cells [3]; takinib 10 μM, n=4",17.251
same,"IkBα expression, array signal, Mean","RA-FLS cells [3]; takinib 10 μM, n=4",33.4
same,"IkBε expression, array signal, Mean","RA-FLS cells [3]; takinib 10 μM, n=4",178.592
same,"JNK1/2 expression, array signal, Mean","RA-FLS cells [3]; takinib 10 μM, n=4",19.76
same,"JNK2 expression, array signal, Mean","RA-FLS cells [3]; takinib 10 μM, n=4",17.3675
same,"LTBR/TNFRSF3 expression, array signal, Mean","RA-FLS cells [3]; takinib 10 μM, n=4",22.136
same,"MYD88 expression, array signal, Mean","RA-FLS cells [3]; takinib 10 μM, n=4",36.28
same,"Metadherin/AEG-1 expression, array signal, Mean","RA-FLS cells [3]; takinib 10 μM, n=4",31.01
same,"NFκB1 expression, array signal, Mean","RA-FLS cells [3]; takinib 10 μM, n=4",66.143
same,"NFκB2 expression, array signal, Mean","RA-FLS cells [3]; takinib 10 μM, n=4",136.3483
same,"NGF R/TNFRSF16 expression, array signal, Mean","RA-FLS cells [3]; takinib 10 μM, n=4",16.68
same,"RelA/p65 (pS529) array signal, Mean","RA-FLS cells [3]; takinib 10 μM, n=4",41.57
same,"RelA/p65 expression, array signal, Mean","RA-FLS cells [3]; takinib 10 μM, n=4",55.81
same,"SHARPIN expression, array signal, Mean","RA-FLS cells [3]; takinib 10 μM, n=4",17.06
same,"SOCS6 expression, array signal, Mean","RA-FLS cells [3]; takinib 10 μM, n=4",64.37
same,"STAT1 (pY701) array signal, Mean","RA-FLS cells [3]; takinib 10 μM, n=4",15.5275
same,"STAT1p91 expression, array signal, Mean","RA-FLS cells [3]; takinib 10 μM, n=4",116.4024
same,"STAT2 (pY689) array signal, Mean","RA-FLS cells [3]; takinib 10 μM, n=4",15.96
same,"STAT2 expression, array signal, Mean","RA-FLS cells [3]; takinib 10 μM, n=4",148.6364
same,"STING/TMEM173 expression, array signal, Mean","RA-FLS cells [3]; takinib 10 μM, n=4",106.8409
same,"TLR2 expression, array signal, Mean","RA-FLS cells [3]; takinib 10 μM, n=4",15.725
same,"TNF RI/TNFRSF1A expression, array signal, Mean","RA-FLS cells [3]; takinib 10 μM, n=4",14.7
same,"TNF RII/TNFRSF1B expression, array signal, Mean","RA-FLS cells [3]; takinib 10 μM, n=4",18.3335
same,"TRAF2 expression, array signal, Mean","RA-FLS cells [3]; takinib 10 μM, n=4",17.884
same,"TRAIL R1/DR4 expression, array signal, Mean","RA-FLS cells [3]; takinib 10 μM, n=4",21.6
same,"TRAIL R2/DR5 expression, array signal, Mean","RA-FLS cells [3]; takinib 10 μM, n=4",91.34
same,"c-Rel expression, array signal, Mean","RA-FLS cells [3]; takinib 10 μM, n=4",16.52
same,"clAP1/BIRC2 expression, array signal, Mean","RA-FLS cells [3]; takinib 10 μM, n=4",25.47
same,"clAP2/BIRC3 expression, array signal, Mean","RA-FLS cells [3]; takinib 10 μM, n=4",18.82
same,"p53 (pS46) array signal, Mean","RA-FLS cells [3]; takinib 10 μM, n=4",14.94
same,"p53 expression, array signal, Mean","RA-FLS cells [3]; takinib 10 μM, n=4",17.85
same,number of NF-κB signaling proteins significantly altered,"RA-FLS cells [3]; takinib, out of 45 profiled",20
same,half-life,"[4]; heart, 50 mg/kg, 50 mpk i.p., read-out: half-life, heart (converted)",16 min
same,half-life,"[4]; heart, 75 mg/kg, 75 mpk i.p., read-out: half-life, heart (converted)",14.4 min
same,half-life,"[4]; muscle, 50 mg/kg, 50 mpk i.p., read-out: half-life, muscle (converted)",8.82 min
same,half-life,"[4]; muscle, 75 mg/kg, 75 mpk i.p., read-out: half-life, muscle (converted)",5.64 min
same,half-life,"[4]; plasma, 50 mg/kg, 50 mpk i.p., read-out: half-life, plasma (converted)",15.4 min
same,half-life,"[4]; plasma, 75 mg/kg, 50 or 75 mg/kg i.p., read-out: plasma (serum) clearance t½",21 min
same,half-life,"[4]; plasma, 75 mg/kg, 75 mpk i.p., read-out: half-life, plasma (converted)",28.2 min
same,half-life,"[4]; spleen, 50 mg/kg, 50 mpk i.p., read-out: half-life, spleen (converted)",279 min
same,half-life,"[4]; tumor, 50 mg/kg, 50 mpk i.p., read-out: half-life, tumor (converted)",22.1 min
same,half-life,"[4]; tumor, 75 mg/kg, 75 mpk i.p., read-out: half-life, tumor (converted)",9.94 min
same,"half-life, spleen","[4]; 50 mpk i.p., 50 mg/kg",277.6 min
same,% Inhibition from Vehicle Disease (clinical score AUC),"CIA mice; CIA DBA/1 mice, takinib 50 mg/kg i.p. daily",32%
same,% Inhibition from Vehicle Disease (clinical score AUC),"CIA mice; CIA DBA/1 mice, takinib 50 mg/kg i.p. daily, listed as Takinib",32% (p=0.08)
same,Mean Clinical Arthritic Score (AUC),"CIA mice; CIA DBA/1 mice, takinib 50 mg/kg i.p. daily, evaluated at day 36",14.19
same,less overall body weight loss compared to vehicle control,"CIA mice; CIA mice, 50 mg/kg i.p. daily, at termination of the study, p = 0.009",50%
same,mean daily clinical arthritis scores vs vehicle disease control,"CIA mice; CIA mice, 50 mg/kg i.p. daily, days 30–36",significantly differed
